Data on ten molecules can be found in patent US6750217B2, “Benzenesulfonamide derivatives and their use as MEK inhibitors” (Warner-Lambert Company, priority 1999, dated 2004).

Data set [1] concerns the target GST-MEK (p45MEK) / GST-MAPK (p44MAP kinase) (Homo sapiens, UniProt Q02750). The experiment in a line: APK IC50; cascade assay for inhibitors of the MAP kinase pathway. The format is biochemical. How it is done:
According to one aspect of the invention, the compounds are MEK inhibitors. MEK inhibition assays include the cascade assay for inhibitors of MAP kinase pathway described at column 6, line 36 to column 7, line 4 of U.S. Pat. No. 5,525,625 and the in vitro MEK assay at column 7, lines 4-27 of the same patent, the entire disclosure of which is incorporated by reference (see also Examples 5-10 below).
Incorporation of ^32P into myelin basic protein (MBP) is assayed in the presence of a glutathione S-transferase fusion protein containing p44MAP kinase (GST-MAPK) and a glutathione S-transferase fusion protein containing p45MEK (GST-MEK). The assay solution contains 20 mM HEPES, pH 7.4, 10 mM MgCl2, 1 mM MnCl2, 1 mM EGTA, 50,μM [γ-^32P]ATP, 10 μg GST-MEK, 0.5 μg GST-MAPK and 40 μg MBP in a final volume of 100 μL. Reactions are stopped after 20 minutes by addition of trichloroacetic acid and filtered through a GF/C filter mat. ^32P retained on the filter mat is determined using a 120S Betaplate. Compounds are assessed at 10 μM for ability to inhibit incorporation of ^32P.
To ascertain whether compounds are inhibiting GST-MEK or GST MAPK, two additional protocols are employed. In the first protocol, compounds are added to tubes containing GST-MEK, followed by addition of GST-MAPK, MBP and [β-^32P]ATP. In the second protocol, compounds are added to tubes containing both GST-MEK and GST-MAPK, followed by MBP and [β-^32P]ATP.
Compounds that show activity in both protocols are scored as MAPK inhibitors, while compounds showing activity in only the first protocol are scored as MEK inhibitors.

In data set [2] the test system is C26 Cells. The experiment in a line: C26 Cells. The format is cell-based.

pIC50: −log10 of the molar value.

Sequence of GST-MEK (p45MEK) / GST-MAPK (p44MAP kinase) (Q02750 whole entry): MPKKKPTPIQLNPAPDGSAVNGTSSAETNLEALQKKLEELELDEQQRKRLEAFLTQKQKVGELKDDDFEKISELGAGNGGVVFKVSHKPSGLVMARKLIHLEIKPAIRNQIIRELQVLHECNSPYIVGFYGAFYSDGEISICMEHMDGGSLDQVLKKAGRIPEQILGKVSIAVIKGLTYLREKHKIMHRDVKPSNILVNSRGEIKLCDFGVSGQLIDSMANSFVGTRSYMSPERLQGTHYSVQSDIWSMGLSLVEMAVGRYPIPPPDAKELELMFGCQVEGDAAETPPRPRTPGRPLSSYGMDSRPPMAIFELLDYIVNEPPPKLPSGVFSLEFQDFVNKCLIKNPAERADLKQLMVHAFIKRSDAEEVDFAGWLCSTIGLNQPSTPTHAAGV

In general, pIC50 refers to −log10 of the IC50, conventionally taken in molar units. For orientation: melting point means the temperature of the solid-liquid transition. For the molecule `NS(=O)(=O)c1cc(C(=O)O)c(Nc2ccc(I)cc2Cl)c(F)c1F` [PD 215730, 2-(2-Chloro-4-iodo-phenylamino)-3,4-difluoro-5-sulfamoyl-benzoic acid], the melting point was 295 to 296 °C (dec.). Besides, the pIC50 in data set [1] was 6.11.
For `NS(=O)(=O)c1cc(C(=O)NO)c(Nc2ccc(I)cc2Cl)c(F)c1F` [PD 224213, 2-(2-Chloro-4-iodo-phenylamino)-3,4-difluoro-N-hydroxy-5-sulfamoyl-benzamide], the melting point was 230 to 236 °C (dec.). The molecule further showed a pIC50 in data set [1] of 6.91. In addition, the pIC50 in data set [2] was 5.04.
As to `CN(Cc1cccnc1)S(=O)(=O)c1cc(C(=O)O)c(Nc2ccc(I)cc2Cl)c(F)c1F` [PD 219795, 2-(2-Chloro-4-iodo-phenylamino)-3,4-difluoro-5-(methyl-pyridin-3-ylmethyl-sulfamoyl)-benzoic acid], the negative-log IC50 (pIC50) in data set [1] is under 5.52.
`Cc1cc(I)ccc1Nc1c(C(=O)NOCC2CC2)cc(S(=O)(=O)N(C)C)c(F)c1F` [PD 252745, N-Cyclopropylmethoxy-5-dimethylsulfamoyl-3,4-difluoro-2-(4-iodo-2-methyl-phenylamino)-benzamide] came in with a melting point of 171 to 172 °C. This molecule also showed a pIC50 in data set [1] of 5.43.
`COC(=O)c1cc(S(=O)(=O)N(C)C)c(F)c(F)c1Nc1ccc(I)cc1Cl` [PD 193846, 2-(2-Chloro-4-iodo-phenlylamino)-5-dimethylsulfamoyl-3,4-difluoro-benzoic acid methyl ester] gave a pIC50 in data set [1] of 6.65.
On to `CN(C)S(=O)(=O)c1cc(C(=O)O)c(Nc2ccc(I)cc2Cl)c(F)c1F` [PD 224339, 2-(2-Chloro-4-iodo-phenylamino)-5-dimethylsulfamoyl-3,4-difluoro-benzoic acid], for which the pIC50 in data set [1] was 6.55; in data set [2], under 5.00.
In the case of `Cc1cc(I)ccc1Nc1c(C(=O)O)cc(S(=O)(=O)N(C)C)c(F)c1F` [PD 224340, 5-Dimethylsulfamoyl-3,4-difluoro-2-(4-iodo-2-methyl-phenylamino)-benzoic acid], the pIC50 in data set [1] is 6.36; in data set [2], under 5.00.
Consider `CN(C)S(=O)(=O)c1cc(C(=O)NOCC2CC2)c(Nc2ccc(I)cc2Cl)c(F)c1F` [PD 250253, 2-(2-Chloro-4-iodo-phenylamino)-N-cyclopropylmethoxy-5-dimethylsulfamoyl-3,4-difluoro-benzamide], for which the melting point is 222 to 225 °C (dec.). The molecule also gave a negative logarithm of the IC50 (pIC50) in data set [1] of 6.03.
The molecule `COc1ccc(CN(Cc2ccc(OC)cc2)S(=O)(=O)c2cc(C(=O)NOCC3CC3)c(Nc3ccc(I)cc3Cl)c(F)c2F)cc1` [PD 218774, 5-[Bis-(4-methoxy-benzyl)-sulfamoyl]-2-(2-chloro-4-iodo-phenylamino)-N-cyclopropylmethoxy-3,4-difluoro-benzamide] gave a pIC50 in data set [1] of under 5.52.
For the molecule `NS(=O)(=O)c1cc(C(=O)NOCC2CC2)c(Nc2ccc(I)cc2Cl)c(F)c1F` [PD 219622, 2-(2-Chloro-4-iodo-phenylamino)-N-cyclopropylmethoxy-3,4-difluoro-5-sulfamoyl-benzamide], the melting point is 219 to 227 °C (dec.). This molecule also gave a pIC50 in data set [1] of 6.73. Also, the pIC50 in data set [2] was 5.80.
